Broadly, the CC50 is the concentration that lowers cell viability or growth by half. Low values mean harm at low concentration, high ones better tolerance by the cells.

The record followed here is publication PMC5267425, “Identification of small molecule modulators of HIV-1 Tat and Rev protein accumulation” (Retrovirology, 2017).

Holding throughout (format): cell-based
The nature of data set [1]: XTT cell metabolism/viability assay, HeLa. As to conditions: human, HeLa rtTA HIV∆Mls cells. As for the experimental part:
(§1) Effects of compound treatment on cellular metabolism was assessed by an XTT-based in vitro toxicology assay kit (Sigma-Aldrich) or Trypan blue exclusion (Life Technologies) as proxy for degree of cytotoxicity and expressed relative to DMSO control treatment. For measurement of cell viability using XTT, culture media was removed after 24, 72, and 96 h of compound treatment, replaced with 20% XTT solution and incubated at 37 °C in a 5% CO2 humidified incubator for 2–6 h, and relative cell viability was measured in compound treated cells relative to DMSO-treated cells. Cell viability measurements in CEM-GXR cells are described above.
On the technique in general: Formazan colour is commonly taken as a measure of viable cells.

Data set [2] deals with p53. In words: Western blot of p53. As to conditions: 791 30 µM, 833 2 µM, 892 15 µM. How it is done: ELISA for p24 Gag antigen was performed on cell supernatants using kits purchased from Frederick National Laboratory for Cancer Research (Leidos) or XpressBio extended range kit and performed according to manufacturer’s instructions. Protein concentration in cell lysates was quantified by Bradford assay and equal amounts of protein run on 7, 10, 12, or 14% SDS-PAGE, depending on the protein of interest. Following transfer to PVDF (BioRad or Perkin-Elmer), blots were blocked in either 5% Milk-PBS-T (5% Milk, 0.05% Tween-20, 1× PBS) or 3% BSA-PBS-T (3% BSA, 0.05% Tween-20, 1× PBS) prior to incubating with primary antibody (all diluted in 3% BSA-PBS-T). Primary antibodies used were: purified mouse anti-p24 supernatant from anti-HIV-1 Gag hybridoma 183, mouse anti-gp120 hybridoma 902 (NIH AIDS Reagent Program), mouse monoclonal antibody to HIV-1 Rev (Abcam), rabbit polyclonal antibody to HIV-1 Tat (Abcam), mouse monoclonal antibody to p53 (Santa Cruz), rabbit purified IgG for Nap1 (provided by L. Frappier), rabbit polyclonal antibody to GAPDH (Sigma-Aldrich), or mouse monoclonal antibody to α-Tubulin (Sigma-Aldrich). Following incubation with appropriate secondary antibody, blots were visualized by ECL, ECL Plus (Perkin-Elmer), or Clarity Western ECL substrate (BioRad). Quantification of the relative intensity of the detected bands was done using ImageLab software and normalized to corresponding bands of the loading control (GAPDH or α-Tubulin).
On the technique in general: In western blotting, separated proteins are transferred to a membrane and probed.

Data set [3] has as its system HIV-1 MS RNA isoforms. In words: RT-PCR of splice site usage within HIV-1 MS RNA. To be noted: for decrease in levels of Rev1/2 and Nef RNAs relative to DMSO / increase of Tat1 and Tat2 RNAs relative to DMSO: 833 2 µM, 892 15 µM. As for the experimental part: The effect of compound treatment on splice site selection within the HIV-1 MS RNA class was analyzed by radioactive RT-PCR as described previously. Radioactive reaction products were resolved on 6% denaturing polyacrylamide gels (8 M Urea, 1xTBE) and detection using a Typhoon 9400 PhosphorImager (Amersham). Gel densitometry was performed using ImageJ software (NIH) to calculate mRNA levels of HIV-1 MS mRNA isoforms, measured as the density of an individual isoform divided by the total density of all visible viral RNA species in a sample.

Data set [4] has as its system HIV-1 Tat. Put plainly: Tat protein decay in the presence of cycloheximide. As to conditions: cycloheximide 10 µg/ml (Figure S4). As for the experimental part:
To assess effect of compounds on HIV-1 Tat stability, the decay of HIV-1 Tat levels was compared between DMSO-treated and compound-treated protein lysates in the presence of cycloheximide. In the first set of experiments, HIV-1 gene expression was induced with doxycylin (dox) for 24 h then 10 μg/mL cycloheximide was added to block new protein synthesis in combination with either DMSO or the compounds. Cells were harvested every 2 h and Tat protein levels measured by western blot. Quantification of the relative intensity of the detected bands was performed using ImageLab software (BioRad) and normalized to corresponding bands of the loading control (GAPDH) from at least three independent experiments. To determine whether the compounds’ effect on HIV-1 gene expression could be reversed by inhibition of the proteasome, compound treatment assay was performed as previously described with the addition of 10 μM MG132 (Sigma-Aldrich) to compound-treated cells 8 h prior to harvesting. Equal amounts of protein were run on 13 or 14% gels by SDS-PAGE, blotted and probed with antibodies for Tat and GAPDH. Quantification of the relative intensity of the detected bands was performed using ImageLab software (BioRad) and normalized to corresponding bands of the loading control (GAPDH) from at least three independent experiments.

Data set [5] in a line: Trypan blue exclusion, HeLa. To be noted: human, HeLa rtTA HIV∆Mls cells. How it is done:
as §1

The subject of data set [6] is total protein synthesis in HeLa HIVrtTA∆Mls cells. Put plainly: SUnSET total protein synthesis. To be noted: doses that significantly reduced HIV-1 protein expression, ∓Dox. As for the experimental part: The effect of the compounds on nascent protein synthesis was measured by surface sensing of translation (SUnSET) as described by Schmidt et al.. Cells were incubated with puromycin, an aminoacyl tRNA analog, to allow puromycin incorporation into newly translated peptides and prevention of further ribosomal elongation by chain termination. To assess the effect of the compounds on protein translation, cells were prepared and treated as described above, but were incubated with 10 μg/mL of puromycin for a period of 30 min prior to harvesting cell lysates for protein analysis. Protein concentration of cell lysates was quantified by Bradford assay and equal amounts of protein (30–35 μg) was run on either 10% or 4–15% (gradient) gels. Following transfer to PVDF (BioRad), blots were probed with mouse monoclonal antibody to puromycin (anti-12D10, EMD Millipore). Blots were developed using ECL Plus (Perkin-Elmer) or Clarity (BioRad) and imaged using the ChemiDoc MP Imager (BioRad). To quantify the levels of protein synthesis, the volume intensity in each lane of compound-treated sample was calculated relative to the DMSO-treated sample and normalized to GAPDH loading control using ImageLab software (BioRad) from at least four independent experiments.

As for `COc1ccc(C=NNC(=O)c2ccccc2O)cc1O` [Compound 892, 2-hydroxy-N′-(3-hydroxy-4-methoxybenzylidene)benzohydrazide], in data set [1], the CC50 was above 40 µM. Besides, the p53 expression result in data set [2] is recorded as “no effect”. Besides, in data set [3], the “decrease in levels of Rev1/2 and Nef RNAs relative to DMSO” value is ~ 30%; the “increase of Tat1 and Tat2 RNAs relative to DMSO” value was below 10%. In addition, the “half-life of HIV-1 Tat relative to DMSO” value in data set [4] is “do not alter”. In data set [5], this molecule registered a CC50 above 40 µM. Also, the “reduction in protein synthesis relative to DMSO” value in data set [6] is on record as ~ 25%.
On to `Cc1cc(NCc2cccnc2)n2ncc(-c3ccc(Cl)cc3)c2n1` [Compound 791, 3-(4-chlorophenyl)-5-methyl-N-(3-pyridinylmethyl)pyrazolo[1,5-a]pyrimidin-7-amine], for which the CC50 in data set [1] and in data set [5] was above 40 µM each time. Further, in data set [2], the p53 expression entry is on record as “approximately twofold”. In addition, the “splice site usage within MS RNA relative to control” value in data set [3] (30 µM, 24 h) is on record as “No significant changes”. Moreover, the “half-life of HIV-1 Tat relative to DMSO” value in data set [4] is listed as “do not alter”. In addition, the “reduction in protein synthesis relative to DMSO” value in data set [6] is on record as “little or no effect”.
In turn, `O=C(NC(=S)NNC(=O)c1ccccc1O)c1ccc(-c2ccccc2)cc1` [Compound 833, N-([2-(2-hydroxybenzoyl)hydrazino]carbonothioyl}-4-biphenylcarboxamide] registered a 50% cytotoxic concentration (CC50) in data set [1] of at least 40 µM. Besides, the p53 expression result in data set [2] is on record as “no effect”. In addition, in data set [3], the “decrease in levels of Rev1/2 and Nef RNAs relative to DMSO” value is ~ 30%; the “increase of Tat1 and Tat2 RNAs relative to DMSO” value is recorded as below 10%. Besides, the “half-life of HIV-1 Tat relative to DMSO” value in data set [4] is “do not alter”. For the same molecule, the half-maximal cytotoxic concentration (CC50) in data set [5] was above 10 µM. For the same molecule, the “reduction in protein synthesis relative to DMSO” value in data set [6] is recorded as “little or no effect”.
